Marks after values point to notes of the source that are not given here.
Legend:
[1] = test system: SPF Kunming mice; assay: Acute toxicity in mice; format: in vivo; conditions: for Granulocyte number GR# / Granulocyte percentage GR % / Hematocrit HCT / Hemoglobin HGB / Lymphocyte number Lym# / Lymphocyte percentage Lym % / Mean corpuscular hemoglobin MCH / Mean corpuscular volume MCV / Mean corpuscular-hemoglobin concentration MCHC / Mean platelet volume MPV / Middle cell number Mid# / Middle cell percentage Mid % / Platelet distribution PDW / Platelet-large cell count PLCC / Platelet-large cell ratio PLCR / Plateletcrit PCT / Platelets PLT / Red blood cell distribution width coefficient of variation RDW_CV / Red blood cell distribution width standard deviation RDW_SD / Red blood cells RBC / While blood cells WBC: acute toxicity
Description: The groups were recorded as a sodium chloride solution group, a low dosage group, a medium dosage group and a high dosage group, respectively, and the general conditions and the body weight were observed per day within 7 to 10 d. At the end of the experimental period, blood samples were collected for hematological and serum biochemical analysis (refer to Embodiment 4). A histopathological examination of major organs and tissue was performed on all animals in each group (refer to Embodiment 4).

[2] = test system: APP/PS1 double transgenic mice; assay: Alzheimer's disease in APP/PS1 double transgenic mice; format: in vivo
Description: 20 12-month-old APP/PS1 double transgenic mice (Hangzhou Ziyuan Experimental Animal Technology Co., Ltd., batch MJ0324-058) were randomly divided into two groups: an APP group and an APP+AKK group, with 10 mice in each group. Another 10 littermate wild-type C57 BL/6J mice were taken as blank, which served as a WT group. All mice were given intragastric administration and injection for 30 d at 12-month age (see Table 7 for intragastric administration conditions). After all the experiments ended, blood was collected from the orbital veins of the mice. The mice were sacrificed by cervical dislocation. Part of brain tissue, liver tissue and colon tissue of the mice were taken and placed in 4% paraformaldehyde, and the remaining tissue was placed in an ultra-low temperature freezer at −80° C. for storage.
DDW: Double distilled water.
After administration, a Morris water maze experiment of a 4-day duration was conducted firstly. The water maze consists of a circular pool (with a diameter of 120 cm) and is evenly divided into four quadrants. During the experiment, the mice were moved into a laboratory two hours in advance to acquaint themselves with the environment. The water temperature was adjusted to around 21° C. to 22° C., and then milk was poured into the pool to make the water milky white. D1 to D3 were a training period, during which the mice were gently placed into the water from first, second, third, and fourth quadrants with their faces towards the direction of the pool wall reminders. Swimming trajectories at 1 min were recorded. […] Each mouse was trained once per day per quadrant for 3 consecutive days. D4 was an experimental period, during which a quadrant was randomly selected for each mouse and then the mice were placed in the pool. The time required to find the platform within 60 s, i.e., escape latency, was recorded, and the swimming trajectory of each mouse was recorded with a video acquisition system. If the mouse fail to find the platform within 60 s after entering the water, the escape latency is recorded as 60 s.
A hippocampus was homogenized in 1 mL RIPA (Thermofisher, Waltham, MA, USA) and 10 μL PMSF (Thermofisher), and the homogenized hippocampus was centrifuged at 4° C. at 12000×g for 5 min. Proteins were quantified using a BCA protein assay kit (Thermofisher). A protein sample was mixed with a sample buffer (Thermofisher) in a ratio of 4:1, and the mixture was heated at 95° C. for 5 min. Then the sample was dispensed into gel pores of SDS-PAGE gel and the gel was run at 100 V. Strips on SDS-PAGE gel were transferred onto a PVFD membrane. The PVDF membrane was sealed with 5% skim milk for 1 h, and then the stripes were incubated overnight with a primary antibody (Thermofisher) at 4° C. An antibody (Thermofisher) was added after the membrane was washed and the incubation was performed for 1 h. Images on iBright™ (Thermofisher) were obtained after chemiluminescence was performed using a western ECL substrate (Thermofisher), where the images were used for subsequent analysis.
The hippocampus was taken and homogenized with PBS, and then liquid supernatant was drawn for the experiment. The levels of IL-4 (interleukin-4, Nanjing Jiancheng Biological Engineering Research Institute, product number: H005-1-2), IL-10 (interleukin-10, Nanjing Jiancheng Biological Engineering Research Institute, product number: H009-1-2), CCL2 (chemokine ligand 2, Nanjing Jiancheng Biological Engineering Research Institute, product number: H318-1) and CXCL1 (CXC chemokine ligand 1, Nanjing Jiancheng Biological Engineering Research Institute, product number: H306-1) in the hippocampus were tested by the instruction of the ELISA kit.

[3] = high dosage 5×10^11 CFU/d intragastric for 1 d
[4] = low dosage 1×10^9 CFU/d intragastric for 1 d
[5] = medium dosage 5×10^10 CFU/d intragastric for 1 d
[6] = 1*10^9 CFU/mouse/d intragastric 30 d, vs APP group
[7] = APP+AKK group compared with APP group

Akkermansia muciniphila [AKK PROBIO]
pathological sections of livers and kidneys ([1]; acute): no significant pathological injury | death ([1]; acute intragastric administration, high, medium and low dosage (5×10^11, 5×10^10, 1×10^9 CFU/d)): no death occurs | Granulocyte number GR# [1, 3]: 0 ± 0 10^9/L | Granulocyte percentage GR % [1, 3]: 0 ± 0% | Hematocrit HCT [1, 3]: 7.35 ± 2.76% | Hemoglobin HGB [1, 3]: 110.00 g/L | Lymphocyte number Lym# [1, 3]: 0.54 ± 0.37 10^9/L | Lymphocyte percentage Lym % [1, 3]: 100 ± 0% | Mean corpuscular hemoglobin MCH [1, 3]: 81.55 pg | Mean corpuscular volume MCV [1, 3]: 52.60 fL | Mean corpuscular-hemoglobin concentration MCHC [1, 3]: 1579.00 g/L | Mean platelet volume MPV [1, 3]: 9.20 ± 0.71 fL | Middle cell number Mid# [1, 3]: 0 ± 0 10^9/L | Middle cell percentage Mid % [1, 3]: 0 ± 0% | Platelet distribution PDW [1, 3]: 21.00% | Platelet-large cell count PLCC [1, 3]: 218.50 ± 10^9/L | Platelet-large cell ratio PLCR [1, 3]: 19.70% | Plateletcrit PCT [1, 3]: 1.04 ± 0.40% | Platelets PLT [1, 3]: 1112.50 ± 10^9/L | Red blood cell distribution width coefficient of variation RDW_CV [1, 3]: 13.75% | Red blood cell distribution width standard deviation RDW_SD [1, 3]: 92.55 fL | Red blood cells RBC [1, 3]: 1.38 ± 0.35 10^12/L | While blood cells WBC [1, 3]: 0.54 ± 0.37 10^9/L | Granulocyte number GR# [1, 4]: 0.05 ± 10^9/L | Granulocyte percentage GR % [1, 4]: 3.8% | Hematocrit HCT [1, 4]: 11.70% | Hemoglobin HGB [1, 4]: 87.50 g/L | Lymphocyte number Lym# [1, 4]: 0.82 ± 10^9/L | Lymphocyte percentage Lym % [1, 4]: 95.55% | Mean corpuscular hemoglobin MCH [1, 4]: 45.35 pg | Mean corpuscular volume MCV [1, 4]: 55.90 fL | Mean corpuscular-hemoglobin concentration MCHC [1, 4]: 802.00 g/L | Mean platelet volume MPV [1, 4]: 9.55 fL | Middle cell number Mid# [1, 4]: 0.01 ± 10^9/L | Middle cell percentage Mid % [1, 4]: 0.65% | Platelet distribution PDW [1, 4]: 19.10% | Platelet-large cell count PLCC [1, 4]: 273.50 ± 10^9/L | Platelet-large cell ratio PLCR [1, 4]: 27.65% | Plateletcrit PCT [1, 4]: 0.89% | Platelets PLT [1, 4]: 921.00 ± 10^9/L | Red blood cell distribution width coefficient of variation RDW_CV [1, 4]: 14.85% | Red blood cell distribution width standard deviation RDW_SD [1, 4]: 76.40 fL | Red blood cells RBC [1, 4]: 2.12 ± 10^12/L | While blood cells WBC [1, 4]: 0.88 ± 10^9/L | Granulocyte number GR# [1, 5]: 0.06 ± 10^9/L | Granulocyte percentage GR % [1, 5]: 4.20 ± 5.94% | Hematocrit HCT [1, 5]: 11.70% | Hemoglobin HGB [1, 5]: 96.00 g/L | Lymphocyte number Lym# [1, 5]: 0.99 ± 10^9/L | Lymphocyte percentage Lym % [1, 5]: 95.20% | Mean corpuscular hemoglobin MCH [1, 5]: 49.20 pg | Mean corpuscular volume MCV [1, 5]: 53.05 fL | Mean corpuscular-hemoglobin concentration MCHC [1, 5]: 892.00 g/L | Mean platelet volume MPV [1, 5]: 9.15 ± 0.78 fL | Middle cell number Mid# [1, 5]: 0.01 ± 10^9/L | Middle cell percentage Mid % [1, 5]: 0.60% | Platelet distribution PDW [1, 5]: 20.15% | Platelet-large cell count PLCC [1, 5]: 158.50 ± 10^9/L | Platelet-large cell ratio PLCR [1, 5]: 18.00% | Plateletcrit PCT [1, 5]: 0.84 ± 0.54% | Platelets PLT [1, 5]: 891.50 ± 10^9/L | Red blood cell distribution width coefficient of variation RDW_CV [1, 5]: 13.05% | Red blood cell distribution width standard deviation RDW_SD [1, 5]: 73.40 fL | Red blood cells RBC [1, 5]: 2.28 ± 10^12/L | While blood cells WBC [1, 5]: 1.06 ± 10^9/L | weight of major organs (organ indices) ([1]; acute, heart, liver, spleen, kidneys, thymus, brain, testes, lungs, stomach, intestine, vs control group): substantially no significant difference | activity of glutamic oxalacetic transaminase (GOT) in both serum and liver ([1]; acute, vs control group): no significant difference | activity of glutamic pyruvate transaminase (GPT) in both serum and liver ([1]; acute, vs control group): no significant difference | concentration of blood urea nitrogen (BUN) in serum ([1]; acute, vs control group): no significant difference | content of creatinine (GRE) in serum ([1]; acute, vs control group): no significant difference | level of glucose (GLU) in both serum and liver ([1]; acute, vs control group): no significant difference | level of the bile acid in both serum and liver ([1]; acute, vs control group): no significant difference | level of the cholesterol in both serum and liver ([1]; acute, vs control group): no significant difference | level of total protein (TP) in both serum and liver ([1]; acute, vs control group): no significant difference | level of the triglyceride in serum ([1]; acute, vs control mice): no significant difference | changes of blood glucose per day ([1]; acute, vs control saline group): no significant difference | changes of body weight per day ([1]; acute, vs control saline group): no significant difference | changes of food intake per day ([1]; acute, vs control saline group): no significant difference | level of triglyceride in the liver ([1]; acute, vs control saline group): significantly lower | various blood indicators ([1]; acute, vs control saline group): no significant difference | escape latency (Morris water maze) [2, 6]: shortened | path to finding the platform (Morris water maze) [2, 6]: significantly shortened | levels of CXCL1 and CCL2 [2, 7]: declining trend | levels of IL-4 and IL-10 [2, 7]: rising trend | Hippocampus IL-4 ([2]; APP/PS1 mice, 1*10^9 CFU/mouse/d 30 d, APP group 54.73, WT 410.91): 210.90 ± 19.77^c | Hippocampus CCL2 ([2]; APP/PS1 mice, 1*10^9 CFU/mouse/d 30 d, APP group 159.11, WT 103.32): 123.20 ± 0.50^b | Hippocampus Aβ ([2]; APP/PS1 mice, 1*10^9 CFU/mouse/d 30 d, APP group 348.45, WT 59.23): 185.15 ± 9.07^b | Hippocampus IL-10 ([2]; APP/PS1 mice, 1*10^9 CFU/mouse/d 30 d, APP group 1035.86, WT 3373.80): 2516.88 ± 91.80^c | Hippocampus CXCL1 ([2]; APP/PS1 mice, 1*10^9 CFU/mouse/d 30 d, APP group 1217.20, WT 355.37): 653.77 ± 15.44^b

From patent US12606795B2 (Thankcome Biological Science and Technology (SuZhou) Co., …, priority 2023, dated 2026)
